Measured values: patent publication US20060292243A1, “Arsenic compounds for the treatment of the arsenic-sensitive blast-cell related diseases” (priority 2005, published 2006)
Marks after values point to notes of the source that are not given here.

Experiments:
[1] = test system: Fibroblasts; assay: DAPI staining of apoptotic bodies in fibroblasts; type: cell-based, human; conditions: 24 hours
Description: Fibroblasts were treated with different concentrations of ATO for 24 hours, cells were fixed and the apoptotic bodies were detected by DAPI staining.

[2] = test system: Eotaxin; assay: Eotaxin in BALF by ELISA, OVA-immunized mice; type: in vivo, BALB/c mice
Description: BALB/c mice (female, 6-8 weeks) were immunized with ovalbumin (OVA) at day 0, 14, 21 and 28. 38 days later, animals were injected with arsenic trioxide (ATO) i.p. for 7 days and antigen challenges with OVA were performed at day 42, 43, 44. At day 45, the airway enhanced pause (PenH) values were measured. 48 hours after the last antigen challenges, the mice were sacrificed, the trachea cannulated, and bronchoalveolar lavage (BAL) was performed by four repeated lavages with balanced salt solution (HBSS) injected into the lungs via the trachea. Total cell counts were performed with a hemocytometer after staining with trypan blue, and then cytospins were prepared, and a differential count of 300 cells per slide was performed. To obtain the absolute number of each leukocyte subtype in the lavage, the percentage of each cell type was multiplied by the total number of cells that were recovered from the bronchoalveolar lavage fluid (BALF). Eotaxin in the BALF was measured via ELISA. Four groups of mice were treated as Table 3.1.
Group A mice were challenged by PBS only and then treated by PBS, too. Group B mice were immunized by ovalbumin and then treated by PBS only. Group C mice were immunized by ovalbumin and then treated by arsenic trioxide in a dosage of 2.5 mg per kg for mice. Group D mice were challenged by ovalbumin as group B and C and then treated by arsenic trioxide in a dosage of 5 mg/kg.

[3] = test system: ssDNA; assay: Serum IgG anti-ssDNA ELISA in SLE model mice; type: in vivo, NZB/NZW mice
Description: (§1) In vivo studies on the activity of arsenic compound were carried out by using an experimental animal model of human Systemic Lupus Erythematosus. NZB/NZW denotes the mouse strain that spontaneously develops an autoimmune syndrome having notable similarities to human Systemic Lupus Erythematosus. Autoimmune disease in NZB/NZW mice is characterized by antinuclear antibodies (IgG) production about 4 months of age, and glomerulonephritis with proteinuria is developed when at 9 months of age, and that is the major cause of death (uremia).
(§2) At 24 weeks of age, mice (3 groups) were treated 3 times per week with PBS (Group I as positive control), 2.5 mg/kg of As2O3 (Group II), or 5 mg/kg of As2O3 (Group III) administered intraperitoneally. The treatment was stopped at 28 weeks of age. Mice were observed daily for clinical signs of disease and for mortality and were bled every 4 weeks for determination of anti-DNA antibody production.
Standard ELISA assay to measure the serum levels of anti-DNA antibodies was performed as follows. The plates were coated 10 μg/mL mBSA 4° C. overnight before coating dsDNA and ssDNA diluted with PBS to concentration of 7.5 μg/mL. ssDNA was prepared by boiling for 20 min then placed on ice immediately for 20 min. After overnight incubation at 4° C., the plates were washed and blocked with gelatin-PBS solution. The serum was diluted and then added to the appropriate wells, which were then incubated at 37° C. for 45 min. Horseradish peroxidase-comjugated anti-mouse γ-chain-specific antibodies were added. After incubation at 37° C. for 50 min, then room temperature for 10 min, 2,2′-azino-bisC3-ethylbenzthiazoline-6-sulphonic acid (ABTS) solution was used as substrate and the absorbance was measured at 405 nm. The level of anti-DNA IgG is presented as ELISA units (EU/ml) compared with mAb 10F10. The OD value generated by 74 ng/ml of 10F10 Ab was defined as 1 EU/ml for anti-DNA IgG. The level of anti-nucleosome IgG was calculated as EU by comparison with 10F10 Ab. The absorbance value generated by 231 ng/ml of 10F10 Ab was defined as 1 EU/ml of anti-nucleosome IgG.

[4] = test system: NZB/NZW mice; assay: Survival of SLE model mice; type: in vivo
Description: as §1, §2
Coincident with ameliorating the clinical signs of severe immune complex nephritis, a dramatic prolongation of survival was observed.

[5] = test system: Trypanosoma brucei; assay: Anti-Trypanosoma test, viable cell count; type: cell-based
Description: Arsenic trioxide (Asadin®, 10 mg/10 ml/vial) was used to check the toxicity on the Trypanosoma brucei. Viable cell count was microscopically monitored. […] This is one third of recommended dosage of Melarsoprol (an Anti-Trypanosoma drug). Moreover, cytology observation noticed specific death morphology on cell toxicity. […] Further cytology examination on the death cells will be examined.

In the case of arsenic trioxide, the “apoptotic bodies by DAPI staining” value ([1]; 1 μM) is reported as “no obvious apoptosis”, the “apoptotic bodies by DAPI staining” value ([1]; 2.5 μM) is reported as “no obvious apoptosis” and the “apoptotic bodies by DAPI staining” value ([1]; 5 μM) is reported as “obvious apoptotic bodies present”. For the same substance, the “apoptotic bodies by DAPI staining” value ([1]; 10 μM) was “both apoptosis and necrosis”, the “eotaxin in BALF, Mean” value ([2]; Group C: OVA, ATO 2.5 mg/kg i.p. for 7 days) was 12.38* pg/ml and the “eotaxin in BALF, Mean” value ([2]; Group D: OVA, ATO 5 mg/kg i.p. for 7 days) was 16.00 pg/mL. For the same substance, the “effect on eotaxin level after antigen challenge” value ([2]; especially 2.5 mg/kg, group C vs group B p<0.05) was “diminish the eotaxin level”, the “IgG Anti-ssDNA titer” value ([3]; 2.5 mg/kg i.p. 3 times per week, before treatment) was 0.155 ELISA Unit and the “IgG Anti-ssDNA titer” value ([3]; 2.5 mg/kg, 4 weeks after treatment) was 0.347 ELISA Unit. For the same substance, the “IgG Anti-ssDNA titer” value ([3]; 2.5 mg/kg, 8 weeks after treatment) was 0.400 ELISA Unit, the “IgG Anti-ssDNA titer” value ([3]; 2.5 mg/kg, 12 weeks after treatment) was 0.105 ELISA Unit and the “IgG Anti-ssDNA titer” value ([3]; 5 mg/kg i.p. 3 times per week, before treatment) was 0.176 ELISA Unit. The “IgG Anti-ssDNA titer” value ([3]; 5 mg/kg, 4 weeks after treatment) was 0.303 ELISA Unit, the “IgG Anti-ssDNA titer” value ([3]; 5 mg/kg, 8 weeks after treatment) was 0.296 ELISA Unit and the “IgG Anti-ssDNA titer” value ([3]; 5 mg/kg, 12 weeks after treatment) was 0.201 ELISA Unit. For the same substance, the “survival rate (%)” value ([4]; 2.5 mg/kg, 0 weeks) was 100%, the “survival rate (%)” value ([4]; 2.5 mg/kg, 22 weeks) was 100% and the “survival rate (%)” value ([4]; 2.5 mg/kg, 31 weeks) was 100%. The “survival rate (%)” value ([4]; 2.5 mg/kg, 38 weeks) was 83.3%, the “survival rate (%)” value ([4]; 2.5 mg/kg, 39 weeks) was 66.7% and the “survival rate (%)” value ([4]; 2.5 mg/kg, 40 weeks) was 66.7%. The “survival rate (%)” value ([4]; 2.5 mg/kg, 41 weeks) was 66.7%, the “survival rate (%)” value ([4]; 2.5 mg/kg, 42 weeks) was 50% and the “survival rate (%)” value ([4]; 5 mg/kg, 0 weeks) was 100%. For the same substance, the “survival rate (%)” value ([4]; 5 mg/kg, 22 weeks) was 100%, the “survival rate (%)” value ([4]; 5 mg/kg, 31 weeks) was 66.7% and the “survival rate (%)” value ([4]; 5 mg/kg, 38 weeks) was 66.7%. For the same substance, the “survival rate (%)” value ([4]; 5 mg/kg, 39 weeks) was 66.7%, the “survival rate (%)” value ([4]; 5 mg/kg, 40 weeks) was 66.7% and the “survival rate (%)” value ([4]; 5 mg/kg, 41 weeks) was 66.7%. For the same substance, the “survival rate (%)” value ([4]; 5 mg/kg, 42 weeks) was 66.7%, the “treated mice still alive” value ([4]; after 43 weeks) was 50% and the “killing effect on Trypanosoma brucei (viable cell count)” value ([5]; 0.1 mg/ml/day for 3 days, over 7 days) was “complete killing effect”. For the same substance, the “death morphology on cytology observation” value ([5]; cultured Trypanosoma brucei) was “Cells became thread-like”, the “killing dosage compared with Melarsoprol” value ([5]; cultured Trypanosoma brucei) was “comparable, if not better” and the “killing potency versus 3 doses regimen” value ([5]; one dose regimen of 0.3 mg/ml) was “less killing potency at least one log difference”.
